Bridge positions count the residues as written; N and C are the ends. Square brackets hold non-standard residues; d marks the D form. Peptide text beside a SMILES is read from it. ξ: configuration not given here. d2Nal = N[C@H](Cc1ccc2ccccc2c1)C(=O)O; Thr(3ξ) = CC(O)[C@H](N)C(=O)O
Columns and labels:
[1] = molecular target: T1, somatostatin receptors sub-type 2 (Homo sapiens, UniProt P30874); assay: Affinity for somatostatin receptors: inhibition of [125I-Tyr11]SRIF-14 binding to membranes of transfected CHO-K1 cells; details: competitive inhibition of [125I-Tyr11]SRIF-14 binding, 37° C.
T1 construct: expressed in transfected cells; membrane preparations
T1 sequence (P30874 whole entry): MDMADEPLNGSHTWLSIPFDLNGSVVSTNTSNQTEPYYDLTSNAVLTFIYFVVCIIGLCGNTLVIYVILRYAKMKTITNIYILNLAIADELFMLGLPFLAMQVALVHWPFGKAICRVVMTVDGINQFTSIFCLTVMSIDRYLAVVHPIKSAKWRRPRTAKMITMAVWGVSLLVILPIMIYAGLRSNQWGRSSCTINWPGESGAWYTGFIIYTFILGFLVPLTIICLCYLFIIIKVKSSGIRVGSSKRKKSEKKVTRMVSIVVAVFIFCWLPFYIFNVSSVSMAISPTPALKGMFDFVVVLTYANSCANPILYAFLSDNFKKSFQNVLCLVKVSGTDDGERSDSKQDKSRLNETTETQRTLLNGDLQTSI
Description: The affinity of the compounds of the invention for the somatostatin receptors is determined by measurement of the inhibition of the bond of [125I-Tyr11]SRIF-14 to membrane preparations of transfected CHO-K1 cells.
The CHO-K1 cells expressing in a stable fashion each of the sub-types of somatostatin receptors are collected with 0.5 mM of EDTA and centrifuged at 500 g for 5 minutes at 4° C. The pellet is re-suspended in phosphate buffer (PBS) and centrifuged at 500 g for 5 minutes at 4° C. The pellet is re-suspended in Tris 50 mM buffer at pH 7.4 and centrifuged at 500 g for 5 minutes at 4° C. The cells are lyzed by sonication and centrifuged at 39,000 g for 10 minutes. The pellet is re-suspended in Tris 50 mM buffer at pH 7.4, an aliquot is removed for assaying the proteins and the remainder is centrifuged at 50,000 g for 10 minutes. The membranes obtained in this last pellet are stored at −80° C.
Measurement of the competitive inhibition of the bond of [125I-Tyr11]SRIF-14 (Perkin Elmer) on each of the sub-types of somatostatin receptors is carried out in duplicate in 96-well polypropylene plates. The cell membranes (5 to 20 µg of proteins/well) are incubated with [125I-Tyr11]SRIF-14 (0.05 to 0.1 nM) for 50 to 90 minutes at 37° C. (conditions dependent on the sub-type of receptor) in a HEPES buffer medium 50 mM pH 7.4, comprising 0.2% bovine serum albumin (BSA), MgCl2 5 mM, Trasylol 200 KIU/mL, Bacitracin 0.02 mg/mL, phenylmethylsulphonyl fluoride 0.02 mg/mL.
The bound [125I-Tyr11]SRIF-14 is separated from the free [125I-Tyr11]SRIF-14 by filtration through GF/C glass fibre plates (Unifilter, Perkin Elmer) pre-impregnated with 0.1% polyethylenimine (P.E.I.), using a Filtermate 96 (Perkin Elmer). The filters are washed with Tris-HCl buffer 50 mM, pH 7.4 at 4° C. and the radioactivity present is determined using a counter (TopCount, Perkin Elmer).
The data are analyzed by computer-assisted non-linear regression using XLfit 4.2 (IDBS) software.

[2] = Dynamic release test in PBS; type: physicochemical; details: PBS pH 7.4, 37° C., % of free compound
Description: Release studies can be carried out on the octapeptide compounds according to the invention in the form of gel, solid, or in suspension. Two types of tests can be envisaged: static release tests and/or dynamic tests, both are briefly described hereafter.
The experimental parameters are common to both types of tests. The release medium is a liquid medium which is physico-chemically well-controlled, preferably a PBS (phosphate buffer saline) buffer adjusted to pH 7.4 and maintained at 37° C. The release curve is defined as the concentration of the studied compound in the dissolution medium (expressed in % of free compound) as a function of time (minutes, hours, days). To initiate the tests, a know quantity of sample is placed in the dissolution medium at time 0 (t=0 min/h/d), the sample being optionally conditioned in a device which is suited to its initial physical state (gel, solid, suspension). Measurements of the concentration of the compound in the release medium are carried out by one or more analytical methods which are well known in the state of the art such as UV-visible spectrophotometry or the HPLC (High Performance Liquid Chromatography). The parameters of the analytical methods are adjusted as a function of the physico-chemical characteristics of the compounds. The tests can be carried out with various starting concentrations such as 75 mM and 226 mM in the examples presented hereafter.
For the dynamic release studies, controlled stirring or a release medium flow is applied to the samples. In this mode, the samplings and/or concentration determinations are generally automated and the studies can be carried out in systems / instruments which are standardized and well known in the state of the art (cf. European Pharmacopeia systems). For example, certain studies in dynamic mode can be carried out on samples corresponding to the order of 10 mg of pure compound placed in 100 mL of PBS introduced beforehand into standardized beakers and maintained at 37° C. The stirring and samplings / measurements are controlled by a dissolution testing instrument of device type 1 or 2 described by the European Pharmacopeia.

Ki [1] [nM]	Dynamic release after 44 h ([2]; 75 mM starting concentration) [%]	Dynamic release after 44 h ([2]; 226 mM starting concentration) [%]	Compound
≤ 5	37	17	CC(C)[C@@H]1NC(=O)[C@H](CCCCN)NC(=O)[C@@H](Cc2cccc3ccccc23)NC(=O)[C@H](Cc2ccc(O)cc2)NC(=O)[C@@H](NC(=O)[C@H](N)Cc2ccc3ccccc3c2)CSSC[C@@H](C(=O)N[C@H](C(N)=O)C(C)O)NC1=O (stereo partly drawn) [Example 6, H-D-2-Nal^1-cyclo(Cys^2Tyr^3-13-(1-naphthyl)-D-Ala^4-Lys^5-Val^6-Cys^7)-Thr^8-NH2.2 CH3COOH]
≤ 5000	94	75	CC(C)[C@@H]1NC(=O)[C@H](CCCCN)NC(=O)[C@@H](C)NC(=O)[C@H](Cc2ccc(O)cc2)NC(=O)[C@@H](NC(=O)[C@H](N)Cc2ccc3ccccc3c2)CSSC[C@@H](C(=O)N[C@H](C(N)=O)C(C)O)NC1=O (stereo partly drawn) [Example 4, H-D-2-Nal^1-cyclo(Cys^2Tyr^3-D-Ala^4-Lys^5-Val^6Cys^7)-Thr^8-NH2.2 CH3COOH] (H-[d2Nal]CY[dA]KVC[Thr(3ξ)]-NH2; disulfide 2-7)
≤ 700	100	93	CC(C)[C@@H]1NC(=O)[C@H](CCCCN)NC(=O)[C@@H](Cc2c[nH]cn2)NC(=O)[C@H](Cc2ccc(O)cc2)NC(=O)[C@@H](NC(=O)[C@H](N)Cc2ccc3ccccc3c2)CSSC[C@@H](C(=O)N[C@H](C(N)=O)C(C)O)NC1=O (stereo partly drawn) [Example 3, H-D-2-Nal^1-cyclo(Cys^2-Tyr^3-D-His^4-Lys^5-Val^6-Cys^7)-Thr^8-NH2.2 CH3COOH] (H-[d2Nal]CY[dH]KVC[Thr(3ξ)]-NH2; disulfide 2-7)

— patent US9382306B2, “Octapeptide compounds derived from somatostatin and the therapeutic use thereof” (IPSEN PHARMA S.A.S., priority 2008, dated 2016)
